{"source": "patent US10072005B2", "about": "“4-azaindole derivatives” (EISAI R&D MANAGEMENT CO., LTD., priority 2013, dated 2018)", "data": [{"biological_target": "mAChR M1 (Homo sapiens, UniProt P11229)", "sequence (P11229 whole entry, looked up)": "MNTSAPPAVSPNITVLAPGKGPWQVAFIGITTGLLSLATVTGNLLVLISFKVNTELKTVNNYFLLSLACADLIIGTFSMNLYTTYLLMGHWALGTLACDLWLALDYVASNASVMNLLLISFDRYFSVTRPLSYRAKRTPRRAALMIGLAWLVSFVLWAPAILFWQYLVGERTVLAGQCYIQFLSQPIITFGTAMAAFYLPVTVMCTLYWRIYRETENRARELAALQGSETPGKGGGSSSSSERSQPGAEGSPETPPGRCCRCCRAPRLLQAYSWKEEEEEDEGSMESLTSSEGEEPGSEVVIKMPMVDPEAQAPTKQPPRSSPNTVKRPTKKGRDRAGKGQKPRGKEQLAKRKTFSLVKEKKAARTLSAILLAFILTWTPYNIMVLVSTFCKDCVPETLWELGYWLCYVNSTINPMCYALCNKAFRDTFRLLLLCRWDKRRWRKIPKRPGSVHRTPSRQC", "experiment": "In vitro cellular calcium flux assay, positive allosteric modulation of mAChR M1", "format": "cell-based", "settings": "not given", "experimental": "(§1) Baby hamster kidney cells stably expressing human or rat mAChR M1 to M5 were utilised for primary and selectivity profiling activities. mAChR M2 and M4 cell lines also stably expressed the chimeric Gαqi5 G-protein.\n(§2) Human mAChR M1, M3, M5 and rat M1 cells were grown in low glucose Dulbecco's Modified Eagle's Medium (DMEM) medium plus heat inactivated 10% fetal bovine serum (HI FBS) and 500 μg/ml hygromycin B^1. Human mAChR M2 and M4 cells were maintained as above with^2 the addition of 500 μg/ml G418 to the media. Cells were maintained in culture at 37° C./5% CO2 and passaged twice weekly by treatment with 0.05% Trypsin/EDTA detachment solution, centrifugation (200 g, 5 min) and re-suspension in fresh media. Following cell expansion, cells were cryopreserved at −80° C. by treatment with 0.05% Trypsin/EDTA detachment solution, centrifugation (200 g, 5 min) and re-suspension of the pellet in freezing media (90% HI FBS/10% DMSO^3) at 15E6 cells/ml^4.\n(§3) Prior to assaying, cells were prepared by thawing at 37° C. in a water bath, centrifugation (200 g, 5 min) and re-suspension of the pellet in fresh media. 15000 cells per well were seeded in black, clear bottomed 384-well Greiner Bio-One plates in plating medium (DMEM/10% HI FBS) and incubated overnight at 37 C/5% CO2.\n(§4) On the day of the assay, media was removed from each well and replaced with 50 μl^5 assay buffer (HBSS with 20 mM HEPES and 2.5 mM Probenecid) containing the calcium indicator, Calcium 4 (Molecular Devices). Cells were then incubated at 37° C./5% CO2 for 30 min and at room temperature.\n(§5) Compound preparation was carried out by generation of 11-point, 1 in 3 serial dilution concentration response curves in 100% DMSO. Compound was then diluted 1 in 65^6 with assay buffer (HBSS with 20 mM HEPES and 2.5 mM Probenecid) prior to the addition of 10 ul^7 to the cells using a Tetra fluorometric imaging plate reader (Molecular Devices)^8. Compound driven increases in intracellular calcium flux was measured as an increase in fluorescence (494Ex, 516Em)^9.\n(§6) Positive allosteric modulator pEC50 values and antagonist pIC50 values for each compound were then determined. […] The points of modification and the alternate reagents, concentrations or equipment employed in these examples were: ^1200 μg/ml hygromycin B; ^2G418 not added; ^3CELLBANKER 1; ^410E6; ^5 40 μl; ^6 1 in 99; ^7 20 μl; ^8FDSS6000 (Hamamatsu Photonics); ^9(480Ex, 540Em); ^10Spotfire (TIBCO).", "units": {"EC50": "nM"}, "values": [{"smiles": "O=C(N[C@@H]1CCOC[C@H]1O)c1cn(Cc2cccc(F)c2)c2c(Cl)ccnc12", "note": "(single isomer, unassigned) [Example 86, 7-Chloro-1-(3-fluorobenzyl)-N-(trans-3-hydroxytetrahydro-2H-pyran-4-yl)-1H-pyrrolo[3,2-b]pyridine-3-carboxamide]", "EC50": 25.1}]}, {"biological_target": "mAChR M1 (Homo sapiens, UniProt P11229)", "experiment": "In vitro cellular calcium flux assay, positive allosteric modulation of mAChR M1", "format": "cell-based", "settings": "BHK cells expressing mAChR M1; EC20 carbachol; Examples 76-80 and 82-89 slightly modified procedure", "experimental": "as §1, §2, §3, §4, §5, §6", "values": [{"smiles": "Cc1ccc(Cn2cc(C(=O)N[C@H]3CCCC[C@@H]3O)c3ncccc32)cc1", "note": "[Example 1, N-((1S,2S)-2-hydroxycyclohexyl)-1-(4-methylbenzyl)-1H-pyrrolo[3,2-b]pyridine-3-carboxamide]", "pEC50 for positive allosteric modulation": 7.0}, {"smiles": "O=C(N[C@H]1CCCC[C@@H]1O)c1cn(Cc2cc(F)cc(F)c2)c2cccnc12", "note": "[Example 2, 1-(3,5-Difluorobenzyl)-N-((1S,2S)-2-hydroxycyclohexyl)-1H-pyrrolo[3,2-b]pyridine-3-carboxamide]", "pEC50 for positive allosteric modulation": 6.7}, {"smiles": "O=C(N[C@H]1CCCC[C@@H]1O)c1cn(Cc2cc(F)ccc2F)c2cccnc12", "note": "[Example 3, 1-(2,5-Difluorobenzyl)-N-((1S,2S)-2-hydroxycyclohexyl)-1H-pyrrolo[3,2-b]pyridine-3-carboxamide]", "pEC50 for positive allosteric modulation": 6.8}, {"smiles": "O=C(N[C@H]1CCCC[C@@H]1O)c1cn(Cc2cccc(F)c2)c2cccnc12", "note": "[Example 4, 1-(3-Fluorobenzyl)-N-((1S,2S)-2-hydroxycyclohexyl)-1H-pyrrolo[3,2-b]pyridine-3-carboxamide]", "pEC50 for positive allosteric modulation": 6.8}, {"smiles": "Cc1nc(Cn2cc(C(=O)N[C@H]3CCCC[C@@H]3O)c3ncccc32)cs1", "note": "[Example 7, N-((1S,2S)-2-Hydroxycyclohexyl)-1-((2-methylthiazol-4-yl)methyl)-1H-pyrrolo[3,2-b]pyridine-3-carboxamide]", "pEC50 for positive allosteric modulation": 5.9}, {"smiles": "O=C(N[C@H]1CCCC[C@@H]1O)c1cn(Cc2ccc(OC(F)(F)F)cc2)c2cccnc12", "note": "[Example 9, N-((1S,2S)-2-Hydroxycyclohexyl)-1-(4-(trifluoromethoxy)benzyl)-1H-pyrrolo[3,2-b]pyridine-3-carboxamide]", "pEC50 for positive allosteric modulation": 6.6}, {"smiles": "O=C(N[C@H]1CCCC[C@@H]1O)c1cn(Cc2ccc(F)cc2)c2c(Cl)ccnc12", "note": "[Example 14, 7-Chloro-1-(4-fluorobenzyl)-N-((1S,2S)-2-hydroxycyclohexyl)-1H-pyrrolo[3,2-b]pyridine-3-carboxamide]", "pEC50 for positive allosteric modulation": 7.3}, {"smiles": "O=C(N[C@H]1CCCC[C@@H]1O)c1cn(Cc2cccc(F)c2F)c2c(Cl)ccnc12", "note": "[Example 15, 7-Chloro-1-(2,3-difluorobenzyl)-N-((1S,2S)-2-hydroxycyclohexyl)-1H-pyrrolo[3,2-b]pyridine-3-carboxamide]", "pEC50 for positive allosteric modulation": 7.0}, {"smiles": "Cc1cccc(Cn2cc(C(=O)N[C@H]3CCCC[C@@H]3O)c3nccc(Cl)c32)n1", "note": "[Example 16, 7-Chloro-N-((1S,2S)-2-hydroxycyclohexyl)-1-((6-methylpyridin-2-yl)methyl)-1H-pyrrolo[3,2-b]pyridine-3-carboxamide]", "pEC50 for positive allosteric modulation": 6.5}, {"smiles": "O=C(N[C@H]1CCCC[C@@H]1O)c1cn(Cc2ccc(F)cn2)c2c(Cl)ccnc12", "note": "[Example 17, 7-Chloro-1-((5-fluoropyridin-2-yl)methyl)-N-((1S,2S)-2-hydroxycyclohexyl)-1H-pyrrolo[3,2-b]pyridine-3-carboxamide]", "pEC50 for positive allosteric modulation": 6.9}, {"smiles": "O=C(NC1(CO)CCCC1)c1cn(Cc2ccc(F)cc2)c2cccnc12", "note": "[Example 21, 1-(4-Fluorobenzyl)-N-(1-(hydroxymethyl)cyclopentyl)-1H-pyrrolo[3,2-b]pyridine-3-carboxamide]", "pEC50 for positive allosteric modulation": 5.7}, {"smiles": "O=C(N[C@H]1CCCC[C@@H]1O)c1cn(Cc2ccccc2F)c2cccnc12", "note": "[Example 22, 1-(2-Fluorobenzyl)-N-((1S,2S)-2-hydroxycyclohexyl)-1H-pyrrolo[3,2-b]pyridine-3-carboxamide]", "pEC50 for positive allosteric modulation": 6.5}, {"smiles": "O=C(N[C@H]1CCCC[C@@H]1O)c1cn(Cc2ccc(Cl)cc2)c2cccnc12", "note": "[Example 23, 1-(4-Chlorobenzyl)-N-((1S,2S)-2-hydroxycyclohexyl)-1H-pyrrolo[3,2-b]pyridine-3-carboxamide]", "pEC50 for positive allosteric modulation": 6.6}, {"smiles": "O=C(N[C@H]1CCCC[C@@H]1O)c1cn(Cc2ccc(F)cc2F)c2cccnc12", "note": "[Example 24, 1-(2,4-Difluorobenzyl)-N-((1S,2S)-2-hydroxycyclohexyl)-1H-pyrrolo[3,2-b]pyridine-3-carboxamide]", "pEC50 for positive allosteric modulation": 6.5}, {"smiles": "Cc1ccc(Cn2cc(C(=O)N[C@H]3CCCC[C@@H]3O)c3ncccc32)cn1", "note": "[Example 25, N-((1S,2S)-2-Hydroxycyclohexyl)-1-((6-methylpyridin-3-yl)methyl)-1H-pyrrolo[3,2-b]pyridine-3-carboxamide]", "pEC50 for positive allosteric modulation": 6.2}, {"smiles": "Cc1ccc(Cn2cc(C(=O)N[C@H]3CCCC[C@@H]3O)c3ncccc32)nc1", "note": "[Example 26, N-((1S,2S)-2-Hydroxycyclohexyl)-1-((5-methylpyridin-2-yl)methyl)-1H-pyrrolo[3,2-b]pyridine-3-carboxamide]", "pEC50 for positive allosteric modulation": 6.1}, {"smiles": "O=C(NC1CCOCC1)c1cn(Cc2ccc(F)cc2)c2cccnc12", "note": "[Example 29, 1-(4-Fluorobenzyl)-N-(tetrahydro-2H-pyran-4-yl)-1H-pyrrolo[3,2-b]pyridine-3-carboxamide]", "pEC50 for positive allosteric modulation": 5.8}, {"smiles": "O=C(NC1CCNCC1)c1cn(Cc2ccc(F)cc2)c2cccnc12", "note": "[Example 30, 1-(4-Fluorobenzyl)-N-(piperidin-4-yl)-1H-pyrrolo[3,2-b]pyridine-3-carboxamide]", "pEC50 for positive allosteric modulation": 6.5}, {"smiles": "CN1CCC(NC(=O)c2cn(Cc3ccc(F)cc3)c3cccnc23)CC1", "note": "[Example 31, 1-(4-Fluorobenzyl)-N-(1-methylpiperidin-4-yl)-1H-pyrrolo[3,2-b]pyridine-3-carboxamide]", "pEC50 for positive allosteric modulation": 6.5}, {"smiles": "N#Cc1ccnc2c(C(=O)N[C@H]3CCCC[C@@H]3O)cn(Cc3ccc(F)cc3)c12", "note": "[Example 32, 7-Cyano-1-(4-fluorobenzyl)-N-((1S,2S)-2-hydroxycyclohexyl)-1H-pyrrolo[3,2-b]pyridine-3-carboxamide]", "pEC50 for positive allosteric modulation": 6.7}, {"smiles": "COc1ccnc2c(C(=O)N[C@H]3CCCC[C@@H]3O)cn(Cc3ccc(F)cc3)c12", "note": "[Example 37, 1-(4-Fluorobenzyl)-N-((1S,2S)-2-hydroxycyclohexyl)-7-methoxy-1H-pyrrolo[3,2-b]pyridine-3-carboxamide]", "pEC50 for positive allosteric modulation": 6.7}, {"smiles": "COc1ccc2c(n1)c(C(=O)N[C@H]1CCCC[C@@H]1O)cn2Cc1ccc(F)cc1", "note": "[Example 38, 1-(4-Fluorobenzyl)-N-((1S,2S)-2-hydroxycyclohexyl)-5-methoxy-1H-pyrrolo[3,2-b]pyridine-3-carboxamide]", "pEC50 for positive allosteric modulation": 5.8}, {"smiles": "O=C(N[C@H]1CCCC[C@@H]1O)c1cn(Cc2ccc(F)cc2)c2ccc(Cl)nc12", "note": "[Example 39, 5-Chloro-1-(4-fluorobenzyl)-N-((1S,2S)-2-hydroxycyclohexyl)-1H-pyrrolo[3,2-b]pyridine-3-carboxamide]", "pEC50 for positive allosteric modulation": 6.0}]}]}
